Measurements published in PMC10714399, “Open Source Antibiotics: Simple Diarylimidazoles Are Potent against Methicillin-Resistant Staphylococcus aureus” (ACS Infectious Diseases, 2023).
Values after ≈ are worked out from the molar mass of the structure shown.

system: Staphylococcus aureus NCTC 13373 (mecA-positive; methicillin-resistant); experiment: In vitro antibacterial activity, MIC (UCL School of Pharmacy assay), MRSA; format: cell-based; settings: Staphylococcus aureus, UCL; read-out: MRSA MIC (UCL)
Summary of the method: (§1)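 Each organism was taken from overnight tryptone soya agar, suspended in PBS at A600 0.1, diluted 1:100 in isosensitest broth and added to serially diluted compound (32 to 0.03 μg/mL).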

MIC	Structure (SMILES)
> 32 µg/mL	c1ccc(Cn2c(-c3ccccn3)nc3ccccc32)cc1 [OSA_000993]
16 µg/mL (≈ 45.1 µM)	c1ccc(-c2nc3ccccc3n2-c2ccc(N3CCCCC3)cc2)nc1 [OSA_000994]
> 32 µg/mL	c1ccc(-c2nc3ccccc3n2-c2ccc(N3CCOCC3)cc2)nc1 [OSA_000995]
> 32 µg/mL	N#CCc1ccc(-n2c(-c3ccccn3)nc3ccccc32)cc1 [OSA_000996]

same assay, conditions: Staphylococcus aureus; read-out: MRSA MIC

MIC	Structure (SMILES)
8 µg/mL (≈ 26.3 µM)	Fc1ccc(Nc2c(-c3ccccn3)nc3ccccn23)cc1 [compound 987]
4 µg/mL (≈ 13.3 µM)	Cc1ccc(Nc2c(-c3ccccn3)nc3ccccn23)cc1 [compound 988]

system: S. aureus ATCC 25923 (methicillin-susceptible); experiment: In vitro antibacterial activity, MIC (UCL), MSSA; format: cell-based, Staphylococcus aureus; settings: not given
Summary of the method: as §1

MSSA MIC	Structure (SMILES)
> 32 µg/mL	c1ccc(-c2nc3ccccc3n2-c2ccc3occc3c2)nc1 [compound 991]

same assay, conditions: Staphylococcus aureus; read-out: MSSA MIC

MIC	Structure (SMILES)
16 µg/mL (≈ 52.6 µM)	Fc1ccc(Nc2c(-c3ccccn3)nc3ccccn23)cc1 [compound 987]
4 µg/mL (≈ 13.3 µM)	Cc1ccc(Nc2c(-c3ccccn3)nc3ccccn23)cc1 [compound 988]

same assay, conditions: Staphylococcus aureus; read-out: MSSA MIC (UCL)

MIC	Structure (SMILES)
> 32 µg/mL	c1ccc(Cn2c(-c3ccccn3)nc3ccccc32)cc1 [OSA_000993]
32 µg/mL (≈ 90.3 µM)	c1ccc(-c2nc3ccccc3n2-c2ccc(N3CCCCC3)cc2)nc1 [OSA_000994]
> 32 µg/mL	c1ccc(-c2nc3ccccc3n2-c2ccc(N3CCOCC3)cc2)nc1 [OSA_000995]
32 µg/mL (≈ 103 µM)	N#CCc1ccc(-n2c(-c3ccccn3)nc3ccccc32)cc1 [OSA_000996]

system: Enterococcus faecalis ATCC 51299 (vanA-positive; vancomycin-resistant); experiment: In vitro antibacterial activity, MIC (UCL), VRE; format: cell-based; settings: not given
Method: Staphylococcus aureus NCTC 13373 (mecA-positive; methicillin-resistant, NCTC 13373) was supplied by the National Collection of Type Cultures (NCTC), Public Health England, United Kingdom. Other organisms, S. aureus ATCC 25923 (methicillin-susceptible) and Enterococcus faecalis ATCC 51299 (vanA-positive; vancomycin-resistant), were obtained from the American Type Culture Collection (ATCC) via LGC Standards, UK. A suspension of each organism was prepared from an overnight plate culture (tryptone soya agar) in phosphate-buffered saline (PBS) and adjusted to an absorbance reading at 600 nm of 0.1, which is approximately equivalent to 1 × 10^8 colony-forming units (CFU) per mL. The cultures were further diluted 1:100 in isosensitest broth (Oxoid, United Kingdom) before 100 μL was used to inoculate each well of a 96-well plate that contained diluted samples of the OSA series. Compounds were evaluated over a 2-fold dilution range from 32 to 0.03 μg/mL. Stocks of the samples were prepared in 100% DMSO at […] before being diluted in isosenstitest broth. The highest concentration of DMSO present was 2%, which has been previously shown not to inhibit the growth of the microorganisms (data not shown). […] Vancomycin was used as a quality control compound.

VRE MIC	Structure (SMILES)
> 32 µg/mL	c1ccc(-c2nc3ccccc3n2-c2ccc3occc3c2)nc1 [compound 991]

same assay, conditions: read-out: VRE MIC

MIC	Structure (SMILES)
32 µg/mL (≈ 105 µM)	Fc1ccc(Nc2c(-c3ccccn3)nc3ccccn23)cc1 [compound 987]
16 µg/mL (≈ 53.3 µM)	Cc1ccc(Nc2c(-c3ccccn3)nc3ccccn23)cc1 [compound 988]

same assay, conditions: read-out: VRE MIC (UCL)

MIC	Structure (SMILES)
> 32 µg/mL	c1ccc(Cn2c(-c3ccccn3)nc3ccccc32)cc1 [OSA_000993]
32 µg/mL (≈ 90.3 µM)	c1ccc(-c2nc3ccccc3n2-c2ccc(N3CCCCC3)cc2)nc1 [OSA_000994]
> 32 µg/mL	c1ccc(-c2nc3ccccc3n2-c2ccc(N3CCOCC3)cc2)nc1 [OSA_000995]
> 32 µg/mL	N#CCc1ccc(-n2c(-c3ccccn3)nc3ccccc32)cc1 [OSA_000996]

system: VSE; experiment: In vitro antibacterial activity, MIC, VSE; format: cell-based; settings: not given

VSE MIC	Structure (SMILES)
> 32 µg/mL	c1ccc(-c2nc3ccccc3n2-c2ccc3occc3c2)nc1 [compound 991]

same assay, conditions: read-out: VSE MIC

MIC	Structure (SMILES)
32 µg/mL (≈ 105 µM)	Fc1ccc(Nc2c(-c3ccccn3)nc3ccccn23)cc1 [compound 987]
16 µg/mL (≈ 53.3 µM)	Cc1ccc(Nc2c(-c3ccccn3)nc3ccccn23)cc1 [compound 988]

same assay, conditions: read-out: VSE MIC (UCL)

MIC	Structure (SMILES)
> 32 µg/mL	c1ccc(Cn2c(-c3ccccn3)nc3ccccc32)cc1 [OSA_000993]
32 µg/mL (≈ 90.3 µM)	c1ccc(-c2nc3ccccc3n2-c2ccc(N3CCCCC3)cc2)nc1 [OSA_000994]
> 32 µg/mL	c1ccc(-c2nc3ccccc3n2-c2ccc(N3CCOCC3)cc2)nc1 [OSA_000995]
> 32 µg/mL	N#CCc1ccc(-n2c(-c3ccccn3)nc3ccccc32)cc1 [OSA_000996]

system: MRC-5SV2 (human lung fibroblast cell line); experiment: Toxicity against MRC-5SV2; format: cell-based; settings: not given
Method: (§2) ADME and toxicity for compounds were measured according to procedures outlined in the manuscript submitted in parallel to this one;2 other procedures were used for those compounds analysed by Monash University (in vitro ADME) or UCL (toxicity), both described in the main

Structure (SMILES)	MRC5 TC50
Fc1ccc(Nc2c(-c3ccccn3)nc3ccccn23)cc1 [compound 987]	2.3 µg/mL
c1ccc(-c2nc3ccccc3n2-c2ccc3occc3c2)nc1 [compound 991]	19.9 µg/mL

same assay, conditions: MRC5 cells

Structure (SMILES)	MRC5 TC50
c1ccc(Cn2c(-c3ccccn3)nc3ccccc32)cc1 [OSA_000993]	64 µM
c1ccc(-c2nc3ccccc3n2-c2ccc(N3CCCCC3)cc2)nc1 [OSA_000994]	19.81 µM
c1ccc(-c2nc3ccccc3n2-c2ccc(N3CCOCC3)cc2)nc1 [OSA_000995]	64 µM
N#CCc1ccc(-n2c(-c3ccccn3)nc3ccccc32)cc1 [OSA_000996]	64 µM

system: PMM (primary mouse macrophages); experiment: Toxicity against PMM; format: cell-based; settings: not given
Method: as §2

Structure (SMILES)	PMM TC50
Fc1ccc(Nc2c(-c3ccccn3)nc3ccccn23)cc1 [compound 987]	9.7 µg/mL
c1ccc(-c2nc3ccccc3n2-c2ccc3occc3c2)nc1 [compound 991]	12.0 µg/mL

same assay, conditions: PMM

Structure (SMILES)	PMM TC50
c1ccc(Cn2c(-c3ccccn3)nc3ccccc32)cc1 [OSA_000993]	64 µM
c1ccc(-c2nc3ccccc3n2-c2ccc(N3CCCCC3)cc2)nc1 [OSA_000994]	15.32 µM
c1ccc(-c2nc3ccccc3n2-c2ccc(N3CCOCC3)cc2)nc1 [OSA_000995]	64 µM
N#CCc1ccc(-n2c(-c3ccccn3)nc3ccccc32)cc1 [OSA_000996]	64 µM
